# Test system: BT20 Cell
# Assay: Cancer Cell Lysate Total L-Glutamate Assay
# Format: cell-based
# Conditions: Homo sapiens, BT-20, 2 h, total L-glutamate in cell lysate, BT20 cells, 2 hour incubation with test compound
# Description: Cancer Cell Lysate Total L-Glutamate Assay
# Cancer cell lines (BT20, HCT116, SKOV3, HCC70, SUM149, MDA-MB-231, etc.) were plated in 96 well plates and were used for the total L-glutamate assay when the monolayer was ca. 80% confluent. The media was changed and fresh media containing L-glutamine was added to the 96 well plates, just before incubation of the cells with test compound. The test compound was diluted in 100% DMSO using a two-fold or three-fold serial dilution. Small volumes of the dilutions of test compound were added to the 96 well plates so the final DMSO concentration was 0.5% v/v in the cell culture medium. The cells were incubated at 37° C., 5% CO2, and 95% air for 2 hours. Following the 2 hour incubation, the cells were washed with water 2 times. After the last water wash, 100 μL of 50 mM Tris-HCl pH 7.4 and 0.01% Tween-20 was added to each well and the plate was frozen at −80° C. The 96 well plate was frozen and thawed a total of 3 times and then sonicated for 5 min at 4° C. in a bath sonicator. Following sonication, the 96 well plate was centrifuged for 5 min at 1000 rpm and 10 μL of the supernatant was transferred to a 384 well assay plate.
# Total L-glutamate (L-glutamic acid) in the cell lysis supernatant was detected using glutamate oxidase, horseradish peroxidase and Amplex Red reagent (10-acetyl-3,7-dihydroxy phenoxazine, Invitrogen # A22177). In this assay, L-glutamate was oxidized by glutamate oxidase to produce alpha-ketoglutarate (2-oxopentane dioic acid), NH3 and H202. The H2O2 (hydrogen peroxide) was used by horseradish peroxidase (HRP) to oxidize the Amplex Red Reagent to resorufin which is a fluorescent molecule. When resorufin is excited with light with a wavelength 530-560 nm, it emits light at approximately 585 nm. For detection of total L-glutamate in 10 μL of lysate, 15 μL of an enzyme mixture was added to each well of the 384 well assay plate. The enzyme mixture consisted of 50 mM Tris-HCl pH 7.4, 0.01% Tween-20, 50 μM Amplex Red reagent (final concentration), 0.04 U/mL L-glutamate oxidase (final concentration), and 0.125 U/mL HRP (final concentration). The 384 well assay plate was incubated at room temperature for 5 min and then the fluorescence intensity of each well was measured at 585 nm using a 530-560 nm excitation wavelength in a plate based fluorimeter such as an LJL Analyst or a Tecan Infinite plate reader. Standard curves were constructed for this assay using dilutions of a L-glutamate standard. IC50 were calculated by plotting the relative fluorescent units vs log of the inhibitor concentration and fitting the data to the four parameter logistic equation.
# Reference: Chapman J. and Zhou M. (1999) Microplate-based fluorometric methods for the enzymatic determination of I-glutamate: application in measuring I-glutamate in food samples. Analytica Chim Acta 402:47-52.
row,IC50 [nM],SMILES
1,7.5,"O=C(Cc1ccccn1)Nc1nnc(CC2CCC(c3nnc(Nc4cnccn4)s3)C2)s1 (racemic) [Example 87, (rac)-N-[5-({(cis)-3-[5-(pyrazin-2-ylamino)-1,3,4-thiadiazol-2-yl]cyclopentyl}methyl)-1,3,4-thiadiazol-2-yl]-2-(pyridin-2-yl)acetamide]"
2,13,"Cn1ccc(Nc2nnc(C3CCC(Cc4nnc(NC(=O)Cc5ccccn5)s4)C3)s2)n1 (racemic) [Example 88, (rac)-N-(5-{[(cis)-3-{5-[(1-methyl-1H-pyrazol-3-yl)amino]-1,3,4-thiadiazol-2-yl}cyclopentyl]methyl}-1,3,4-thiadiazol-2-yl)-2-(pyridin-2-yl)acetamide]"
3,8.5,"CC(C)C(=O)Nc1nnc(C2CC3(C2)CC(c2nnc(NC(=O)C(C)C)s2)C3)s1 (racemic) [Example 94, (rac)-N,N′-(spiro[3.3]heptane-2,6-diyldi-1,3,4-thiadiazole-5,2-diyl)bis(2-methylpropanamide)]"
4,0.3,"Cn1ccc(CC(=O)Nc2nnc(C3CC4(C3)CC(c3nnc(NC(=O)Cc5ccn(C)n5)s3)C4)s2)n1 (racemic) [Example 96, (rac)-N,N-(spiro[3.3]heptane-2,6-diyldi-1,3,4-thiadiazole-5,2-diyl)bis[2-(1-methyl-1H-pyrazol-3-yl)acetamide]]"
5,2.2,"O=C(Cc1ccccn1)Nc1ccc(CC2CCC(c3nnc(NC(=O)C[C@H]4CCCO4)s3)C2)nn1 (mixture of isomers) [Example 129, (rac)-2-(pyridin-2-yl)-N-(6-{[(cis)-3-(5-{[(2R)-tetrahydrofuran-2-ylacetyl]amino}-1,3,4-thiadiazol-2-yl)cyclopentyl]methyl}pyridazin-3-yl)acetamide]"
6,2.1,"CC(C)C(=O)Nc1nnc(C2CC3(CC(c4nnc(NC(=O)Cc5ccccn5)s4)C3)C2)s1 (racemic) [Example 135, 2-methyl-N-[5-(6-{5-[(pyridin-2-ylacetyl)amino]-1,3,4-thiadiazol-2-yl}spiro[3.3]hept-2-yl)-1,3,4-thiadiazol-2-yl]propanamide]"
7,1.9,"CC(C)C(=O)Nc1nnc(C2CC3(CC(c4nnc(NC(=O)Cc5ccn(C)n5)s4)C3)C2)s1 (racemic) [Example 136, 2-methyl-N-{5-[6-(5-{[(1-methyl-1H-pyrazol-3-yl)acetyl]amino}-1,3,4-thiadiazol-2-yl)spiro[3.3]hept-2-yl]-1,3,4-thiadiazol-2-yl}propanamide]"
8,4.4,"Cn1ccc(C(=O)Nc2nnc(C[C@H]3CC[C@@H](c4nnc(NC(=O)Cc5ccccn5)s4)C3)s2)n1 (racemic) [Example 137, (rac)-1-methyl-N-(5-{[(cis)-3-{5-[(pyridin-2-ylacetyl)amino]-1,3,4-thiadiazol-2-yl}cyclopentyl]methyl}-1,3,4-thiadiazol-2-yl)-1H-pyrazole-3-carboxamide]"
9,120,"O=C(Cc1ccccn1)Nc1nnc(C2CCC(c3nnc(NC(=O)Cc4ccccn4)s3)C2)s1 (racemic) [Example 138, N,N′-[cyclopentane-1,3-diyldi-1,3,4-thiadiazole-5,2-diyl]bis[2-(pyridin-2-yl)acetamide]]"
10,196,"O=C(Cc1ccccn1)Nc1nnc(C2CCCC(c3nnc(NC(=O)Cc4ccccn4)s3)C2)s1 (racemic) [Example 139, N,N′-[cyclohexane-1,3-diyldi-1,3,4-thiadiazole-5,2-diyl]bis[2-(pyridin-2-yl)acetamide]]"
11,380,"O=C(Cc1ccccn1)Nc1nnc(C2CCC(c3nnc(NC(=O)Cc4ccccn4)s3)CC2)s1 (racemic) [Example 140, N,N′-(cyclohexane-1,4-diyldi-1,3,4-thiadiazole-5,2-diyl)bis[2-(pyridin-2-yl)acetamide]]"
12,298,"CC(=O)Nc1nnc(C2CC3(C2)CC(c2nnc(NC(C)=O)s2)C3)s1 (racemic) [Example 141, N,N′-(spiro[3.3]heptane-2,6-diyldi-1,3,4-thiadiazole-5,2-diyl)diacetamide]"
13,13.2,"O=C(Cn1cccn1)Nc1nnc(C[C@H]2CC[C@@H](c3nnc(NC(=O)Cc4ccccn4)s3)C2)s1 (racemic) [Example 142, (rac)-2-(1H-pyrazol-1-yl)-N-(5-{[(cis)-3-{5-[(pyridin-2-ylacetyl)amino]-1,3,4-thiadiazol-2-yl}cyclopentyl]methyl}-1,3,4-thiadiazol-2-yl)acetamide]"
14,4.2,"O=C(CCn1cccn1)Nc1nnc(C[C@H]2CC[C@@H](c3nnc(NC(=O)Cc4ccccn4)s3)C2)s1 (racemic) [Example 143, (rac)-3-(1H-pyrazol-1-yl)-N-(5-{[(cis)-3-{5-[(pyridin-2-ylacetyl)amino]-1,3,4-thiadiazol-2-yl}cyclopentyl]methyl}-1,3,4-thiadiazol-2-yl)propanamide]"
15,0.7,"O=C(Cc1ccccn1)Nc1nnc([C@@H]2CC[C@H](Cc3nnc(NC(=O)c4ccccc4F)s3)C2)s1 (racemic) [Example 144, (rac)-2-fluoro-N-(5-{[(cis)-3-{5-[(pyridin-2-ylacetyl)amino]-1,3,4-thiadiazol-2-yl}cyclopentyl]methyl}-1,3,4-thiadiazol-2-yl)benzamide]"
16,7.1,"CC(=O)Nc1nnc([C@@H]2CC[C@H](Cc3nnc(NC(=O)Cc4cscn4)s3)C2)s1 (racemic) [Example 145, (rac)-N-[5-({(cis)-3-[5-(acetylamino)-1,3,4-thiadiazol-2-yl]cyclopentyl}methyl)-1,3,4-thiadiazol-2-yl]-2-(1,3-thiazol-4-yl)acetamide]"
17,6.9,"CC(=O)Nc1nnc([C@@H]2CC[C@H](Cc3nnc(NC(=O)Cc4ccn(C)n4)s3)C2)s1 (racemic) [Example 146, (rac)-N-[5-({(cis)-3-[5-(acetylamino)-1,3,4-thiadiazol-2-yl]cyclopentyl}methyl)-1,3,4-thiadiazol-2-yl]-2-(1-methyl-1H-pyrazol-3-yl)acetamide]"
18,12.6,"CC(=O)Nc1nnc([C@@H]2CC[C@H](Cc3nnc(NC(=O)c4ccccc4F)s3)C2)s1 (racemic) [Example 148, (rac)-N-[5-({(cis)-3-[5-(acetylamino)-1,3,4-thiadiazol-2-yl]cyclopentyl}methyl)-1,3,4-thiadiazol-2-yl]-2-fluorobenzamide]"
19,6.9,"CC(=O)Nc1nnc([C@@H]2CC[C@H](Cc3nnc(NC(=O)Cc4cn5ccccc5n4)s3)C2)s1 (racemic) [Example 149, (rac)-N-[5-({(cis)-3-[5-(acetylamino)-1,3,4-thiadiazol-2-yl]cyclopentyl}methyl)-1,3,4-thiadiazol-2-yl]-2-(imidazo[1,2-a]pyridin-2-yl)acetamide]"
20,1.5,"Cn1cnc(C(=O)Nc2nnc(C[C@H]3CC[C@@H](c4nnc(NC(=O)Cc5ccccn5)s4)C3)s2)c1 (racemic) [Example 150, (rac)-1-methyl-N-(5-{[(cis)-3-{5-[(pyridin-2-ylacetyl)amino]-1,3,4-thiadiazol-2-yl}cyclopentyl]methyl}-1,3,4-thiadiazol-2-yl)-1H-imidazole-4-carboxamide]"
21,4.6,"CC(=O)Nc1nnc([C@@H]2CC[C@H](Cc3nnc(NC(=O)Cc4ccccn4)s3)C2)s1 (racemic) [Example 151, (rac)-N-[5-({(cis)-3-[5-(acetylamino)-1,3,4-thiadiazol-2-yl]cyclopentyl}methyl)-1,3,4-thiadiazol-2-yl]-2-(pyridin-2-yl)acetamide]"
22,2.8,"O=C(Cc1ccccn1)Nc1nnc(C[C@H]2CC[C@@H](c3nnc(NC(=O)Cc4ccccn4)s3)C2)s1 (racemic) [Example 152, (rac)-2-(pyridin-2-yl)-N-(5-{[(cis)-3-{5-[(pyridin-2-ylacetyl)amino]-1,3,4-thiadiazol-2-yl}cyclopentyl]methyl}-1,3,4-thiadiazol-2-yl)acetamide]"
23,2,"Cn1cnc(CC(=O)Nc2nnc([C@H]3CC[C@@H](Cc4ccc(NC(=O)Cc5ccccn5)nn4)C3)s2)c1 (relative stereo) [Example 128, 2-(1-methyl-1H-imidazol-4-yl)-N-{5-[(cis)-3-({6-[(pyridin-2-ylacetyl)amino]pyridazin-3-yl}methyl)cyclopentyl]-1,3,4-thiadiazol-2-yl}acetamide]"
24,1,"O=C(Cc1ccccn1)Nc1nnc(C[C@@H]2CC[C@H](c3nnc(NC(=O)Cc4ccccn4)s3)C2)s1 (single isomer, unassigned) [Example 2]"
25,21.6,"O=C(Cc1ccccn1)Nc1nnc(C[C@H]2CC[C@@H](c3nnc(NC(=O)Cc4ccccn4)s3)C2)s1 (single isomer, unassigned) [Example 4]"
